Measured values reported in the supplement of paper PMC10307832.

Tests used:
Test in all cases: relative viability (nuclei count vs DMSO), 5 days (fraction); higher = more cells survive
[1] = compound: CCN1CCN(c2ccc(Nc3cc(N(C)C(=O)Nc4c(Cl)c(OC)cc(OC)c4Cl)ncn3)cc2)CC1 [BGJ398] + CC(C)C[C@H](NC(=O)[C@H](Cc1ccccc1)NC(=O)c1cnccn1)B(O)O [Bortezomib] (partner 0.002 µM)
How it was run: (§1)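 Lung cancer cell lines in 1536-well plates got either a single drug or a fixed anchor-drug dose together with five library-drug doses (not always all listed) in √10 steps, by pin tool, on the day after seeding. Nuclei were counted after 5 days, and relative viability is the treated-to-vehicle ratio of nuclei counts. Values are medians of duplicate plates.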

[2] = compound: C1=CC2=NC=CN=C2C=C1/C=C/3\C(=O)NC(=O)S3 + Cc1nc(NC(=O)N2CCC[C@H]2C(N)=O)sc1-c1ccnc(C(C)(C)C(F)(F)F)c1 [Alpelisib] (partner 2 µM)
How it was run: as §1

[3] = compound: C1=CC2=NC=CN=C2C=C1/C=C/3\C(=O)NC(=O)S3
How it was run: (§2)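 Viability was read as treated-well nuclei divided by vehicle-well nuclei, using the median across plates. Lung cancer cell lines in 1536-well plates were kept overnight at 37 °C, pinned with five √10-spaced library-drug doses, and after 5 days were Hoechst-stained, imaged at 4× and counted in MetaXpress. Plates passed only with control CV below 25% and at least one doubling.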

[4] = compound: CCN1CCN(c2ccc(Nc3cc(N(C)C(=O)Nc4c(Cl)c(OC)cc(OC)c4Cl)ncn3)cc2)CC1 [BGJ398]
How it was run: as §2

Row | Cell Line | relative viability ([1]; first compound 0.01 µM) | relative viability ([1]; first compound 0.03162 µM) | relative viability ([1]; first compound 0.1 µM) | relative viability ([1]; first compound 0.3162 µM) | relative viability ([1]; first compound 1 µM) | relative viability ([2]; first compound 0.02 µM) | relative viability ([2]; first compound 0.06325 µM) | relative viability ([2]; first compound 0.2 µM) | relative viability ([2]; first compound 0.6325 µM) | relative viability ([2]; first compound 2 µM) | relative viability ([3]; 0.02 µM) | relative viability ([3]; 0.06325 µM) | relative viability ([3]; 0.2 µM) | relative viability ([3]; 0.6325 µM) | relative viability ([3]; 2 µM) | relative viability ([4]; 0.01 µM) | relative viability ([4]; 0.03162 µM) | relative viability ([4]; 0.1 µM) | relative viability ([4]; 0.3162 µM) | relative viability ([4]; 1 µM)
1 | NCI-H1975 | 0.431 | 0.405 | 0.404 | 0.384 | 0.319 | 0.603 | 0.778 | 0.63 | 0.574 | 0.578 | 0.842 | 1.02 | 0.964 | 0.884 | 0.813 | 0.876 | 1.06 | 1.09 | 0.937 | 0.866
2 | CAL-12T | 0.954 | 0.852 | 0.996 | 0.943 | 0.837 | 1.3 | 1.11 | 1.11 | 1.3 | 1.15 | 0.962 | 0.953 | 1.08 | 0.971 | 0.951 | 0.947 | 1.02 | 0.935 | 0.929 | 0.942
3 | NCI-H1623 |  |  |  |  |  |  |  |  |  |  | 0.936 | 0.806 | 0.909 | 0.957 | 0.786 | 1.08 | 0.805 | 1.05 | 0.908 | 1.03
4 | HCC-44 | 0.938 | 0.84 | 0.869 | 0.828 | 0.713 | 0.693 | 0.893 | 0.852 | 0.764 | 0.745 | 0.895 | 1.03 | 0.991 | 0.965 | 0.745 | 0.998 | 0.986 | 0.987 | 0.993 | 0.826
5 | EKVX | 0.993 | 1.06 | 1.27 | 0.959 | 1.07 | 0.834 | 0.78 | 0.869 | 0.784 | 0.771 | 0.927 | 0.885 | 0.987 | 0.936 | 0.786 | 0.865 | 0.942 | 1.08 | 0.871 | 0.986
6 | NCI-H1944 |  |  |  |  |  | 0.856 | 0.763 | 0.853 | 0.776 | 0.8 | 0.902 | 1.07 | 1.09 | 0.871 | 0.77 | 0.869 | 0.985 | 0.973 | 0.873 | 0.946
7 | NCI-H358 |  |  |  |  |  | 0.953 | 0.955 | 0.87 | 0.791 | 0.547 | 1.08 | 0.959 | 0.955 | 0.887 | 0.425 | 0.843 | 0.942 | 1.1 | 0.882 | 1.3
8 | NCI-H1793 |  |  |  |  |  | 0.655 | 0.811 | 0.728 | 0.709 | 0.742 | 0.81 | 0.729 | 1.02 | 0.739 | 0.736 | 0.877 | 0.644 | 0.927 | 0.698 | 0.808
9 | ChaGo-K-1 | 1.12 | 0.928 | 0.957 | 0.896 | 0.604 |  |  |  |  |  | 0.972 | 0.991 | 1.09 | 0.919 | 0.891 | 1.06 | 0.987 | 1.03 | 1.03 | 1.02
10 | NCI-H522 |  |  |  |  |  |  |  |  |  |  | 0.934 | 1.13 | 1 | 0.75 | 0.751 | 0.918 | 0.89 | 1.04 | 0.82 | 0.874
11 | NCI-H1650 | 0.22 | 0.203 | 0.184 | 0.174 | 0.19 |  |  |  |  |  | 0.953 | 0.952 | 0.974 | 1 | 0.975 | 0.874 | 0.747 | 0.909 | 0.487 | 0.692
12 | NCI-H1648 |  |  |  |  |  |  |  |  |  |  | 0.925 | 0.605 | 1.11 | 0.701 | 1 | 0.882 | 0.809 | 0.73 | 0.775 | 0.889
13 | SK-MES-1 |  |  |  |  |  |  | 0.987 | 0.86 | 0.868 | 0.802 | 0.971 | 1.08 | 1.02 | 0.984 | 0.875 | 0.941 | 1.05 | 1.05 | 0.981 | 1.01
14 | NCI-H2342 |  |  |  |  |  |  |  |  |  |  | 0.832 | 1.01 | 0.989 | 0.904 | 0.803 | 0.998 | 0.96 | 0.934 | 1.02 | 1.11
15 | SW 900 |  |  |  |  |  |  |  |  |  |  | 0.888 | 0.978 | 1.04 | 0.705 | 0.965 | 1 | 0.899 | 0.779 | 0.428 | 0.453
16 | LK-2 |  |  |  |  |  | 1.17 | 1.1 | 1.08 | 0.984 | 0.946 | 1.02 | 1.06 | 1.14 | 0.896 | 0.566 | 0.867 | 0.776 | 0.638 | 0.399 | 0.263
17 | NCI-H1395 |  |  |  |  |  | 0.934 | 1.14 | 1.32 | 0.922 | 1.39 | 1.05 | 0.985 | 1.06 | 0.884 | 0.899 | 0.853 | 0.946 | 0.847 | 0.589 | 0.483
18 | A549 |  |  |  |  |  | 0.847 | 1.1 | 0.67 | 0.729 | 0.557 | 0.98 | 0.999 | 1.05 | 0.902 | 0.697 | 0.932 | 0.917 | 1.03 | 0.876 | 0.996
19 | NCI-H2170 |  |  |  |  |  | 0.757 | 0.761 | 0.928 | 0.769 | 0.746 | 0.909 | 1 | 1.01 | 0.938 | 0.998 | 0.988 | 1.06 | 1.1 | 1.03 | 1.07
